# Reference: patent US11447505B1, “Pyrrolo[2,3-b]pyridine compounds and their use in the treatment of cancer” (priority 2017, dated 2022)
# Like-named read-outs stand apart in the source and are kept apart here.
# What was measured:
# MRCKβ [1] = target: T1, MRCKβ (Homo sapiens (Human), UniProt Q9Y5S2); assay: MRCKβ kinase assay (IMAP fluorescence polarization); format: biochemical
# Text: (§1) MRCKα, MRCKβ, ROCK1 and ROCK2 Kinase Assays
# ROCK2 = ROCK2 (Homo sapiens (Human), UniProt O75116); assay: ROCK2 kinase assay (IMAP fluorescence polarization); format: biochemical; conditions: 1 μM ATP; read-out: ROCK2 Average Ki
# Method: MRCKα, MRCKβ, ROCK1 and ROCK2 assays were performed using an IMAP fluorescence polarization assay format (Molecular Devices Inc.). 8-12 nM of each kinase (Life Technologies) was incubated for 60 min at room temperature with 100 nM FAM-S6-ribosomal protein derived peptide (synthesized by Alta Biosciences, University of Birmingham UK) in the presence of 1 μM ATP and 0.5 mM MgCl2 in 20 mM Tris buffer (pH 7.4) containing 0.01% Tween-20 and 1 mM DTT (MRCKα and β); or 1 μM ATP, 10 mM MgCl2 in 20 mM Tris buffer (pH 7.5) containing 0.25 mM EGTA 0.01% Triton X-100 and 1 mM DTT (ROCK1 and ROCK2). Typically, dose response analyses were performed over concentration ranges from 0.005-100 μM. Reactions were stopped by adding 2 assay volumes of 0.25% (v/v) IMAP binding reagent in 1×IMAP binding buffer A (Molecular Devices). After 30 min incubation to allow binding reagent to bind phosphorylated peptide, fluorescence polarization was measured on a Tecan Saphire^2 plate reader at excitation (470 nm) and emission (530 nm) wavelengths.
# ROCK1 [2] = target: T2, ROCK1 (Homo sapiens (Human), UniProt Q13464); assay: biochemical
# MRCKα = MRCKα (Homo sapiens (Human), UniProt Q5VT25); assay: MRCKα kinase assay (IMAP fluorescence polarization); format: biochemical; conditions: 1 μM ATP; read-out: MRCK-a Average Ki
# Text: as §1
# MRCKβ [3] = target: T1, MRCKβ; assay: MRCKβ cellular assay (pMLC T18/S19 immunoblot, MDA-MB-231 cells with doxycycline inducible kinase domain); format: cell-based
# Method: MRCKβ, ROCK1 and ROCK2 Cellular Assays
# MDA-MB-231 cells expressing doxycycline inducible ROCK1, ROCK2 or MRCKβ kinase domains were plated at 1.1×10^5 cells per well of a 12 well plate. After 24 hours, cells were treated with 1 μg/ml doxycycline for 18 hours to induce kinase domain expression and then tested over a suitable concentration range with compounds of the invention for 60 minutes. Cells were then washed with PBS and lysed with Tris-SDS lysis Buffer (50 mM Tris-HCl pH7.4, 0.5% (v/v) SDS, 1×PhosStop Inhibitors (04 906 837 001; Roche) and 1×Complete Protease Inhibitors (04 693 124 001; Roche)). Whole cell lysates were clarified by passing through QIAshredder spin columns, separated by SDS-PAGE, and quantitative immunoblotting performed using a LI-COR Odyssey IR scanner to determine pMLC (T18/S19) and α-Tubulin levels.
# ROCK1 [4] = target: T2, ROCK1; conditions: read-out: ROCK1 Average Ki; 1 μM ATP
# [5] = 1 μM ATP, read-out: MRCK-B Average Ki
# [6] = MDA-MB-231 cells, doxycycline inducible kinase domain, 60 minutes, pMLC (T18/S19), read-out: Cellular assay - MRCK-b inhibition MEAN
# MRCKα, sequence (Q5VT25 whole entry): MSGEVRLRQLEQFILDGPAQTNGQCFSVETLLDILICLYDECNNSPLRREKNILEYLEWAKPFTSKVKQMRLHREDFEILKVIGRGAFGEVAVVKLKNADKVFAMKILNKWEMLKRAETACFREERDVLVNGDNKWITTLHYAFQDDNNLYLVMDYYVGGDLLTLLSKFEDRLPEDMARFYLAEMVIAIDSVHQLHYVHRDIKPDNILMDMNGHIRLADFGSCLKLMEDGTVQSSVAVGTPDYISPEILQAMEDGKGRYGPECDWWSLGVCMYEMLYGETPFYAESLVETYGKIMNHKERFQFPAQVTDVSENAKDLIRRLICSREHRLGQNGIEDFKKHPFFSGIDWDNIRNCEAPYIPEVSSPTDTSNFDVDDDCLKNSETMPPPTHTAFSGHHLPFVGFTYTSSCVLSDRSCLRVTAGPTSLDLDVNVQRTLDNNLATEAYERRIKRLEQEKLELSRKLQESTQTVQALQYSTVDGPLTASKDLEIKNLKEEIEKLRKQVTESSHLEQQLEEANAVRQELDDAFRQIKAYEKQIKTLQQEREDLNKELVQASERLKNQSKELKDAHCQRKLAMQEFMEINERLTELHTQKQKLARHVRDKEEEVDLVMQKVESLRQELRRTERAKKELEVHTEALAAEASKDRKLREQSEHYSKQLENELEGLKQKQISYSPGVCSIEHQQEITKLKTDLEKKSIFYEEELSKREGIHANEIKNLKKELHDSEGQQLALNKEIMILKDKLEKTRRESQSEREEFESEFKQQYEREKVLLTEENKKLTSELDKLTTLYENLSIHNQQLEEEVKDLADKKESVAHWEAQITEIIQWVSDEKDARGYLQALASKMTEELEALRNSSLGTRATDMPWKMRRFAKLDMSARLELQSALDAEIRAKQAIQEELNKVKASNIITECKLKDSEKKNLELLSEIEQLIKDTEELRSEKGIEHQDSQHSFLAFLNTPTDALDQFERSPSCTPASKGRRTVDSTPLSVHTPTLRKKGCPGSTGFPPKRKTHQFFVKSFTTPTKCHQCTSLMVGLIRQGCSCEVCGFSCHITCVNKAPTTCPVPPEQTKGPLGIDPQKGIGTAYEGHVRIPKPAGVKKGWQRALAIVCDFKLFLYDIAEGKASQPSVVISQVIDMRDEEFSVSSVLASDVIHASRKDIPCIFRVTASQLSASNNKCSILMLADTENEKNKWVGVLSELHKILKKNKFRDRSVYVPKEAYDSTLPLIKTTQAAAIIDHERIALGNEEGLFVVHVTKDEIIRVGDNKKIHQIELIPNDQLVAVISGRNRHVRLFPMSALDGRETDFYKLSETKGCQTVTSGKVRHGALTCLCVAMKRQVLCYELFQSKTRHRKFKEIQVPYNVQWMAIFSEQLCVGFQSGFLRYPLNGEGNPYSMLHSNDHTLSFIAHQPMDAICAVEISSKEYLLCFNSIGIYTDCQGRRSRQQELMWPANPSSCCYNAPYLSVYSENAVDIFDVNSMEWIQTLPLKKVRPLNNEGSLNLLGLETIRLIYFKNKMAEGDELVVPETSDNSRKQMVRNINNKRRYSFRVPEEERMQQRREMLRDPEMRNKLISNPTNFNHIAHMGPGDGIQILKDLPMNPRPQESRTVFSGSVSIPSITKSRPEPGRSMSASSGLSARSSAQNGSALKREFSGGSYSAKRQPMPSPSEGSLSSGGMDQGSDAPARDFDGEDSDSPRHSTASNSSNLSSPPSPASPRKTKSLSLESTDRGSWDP
# T2 sequence (Q13464 2-1354 limits assumed): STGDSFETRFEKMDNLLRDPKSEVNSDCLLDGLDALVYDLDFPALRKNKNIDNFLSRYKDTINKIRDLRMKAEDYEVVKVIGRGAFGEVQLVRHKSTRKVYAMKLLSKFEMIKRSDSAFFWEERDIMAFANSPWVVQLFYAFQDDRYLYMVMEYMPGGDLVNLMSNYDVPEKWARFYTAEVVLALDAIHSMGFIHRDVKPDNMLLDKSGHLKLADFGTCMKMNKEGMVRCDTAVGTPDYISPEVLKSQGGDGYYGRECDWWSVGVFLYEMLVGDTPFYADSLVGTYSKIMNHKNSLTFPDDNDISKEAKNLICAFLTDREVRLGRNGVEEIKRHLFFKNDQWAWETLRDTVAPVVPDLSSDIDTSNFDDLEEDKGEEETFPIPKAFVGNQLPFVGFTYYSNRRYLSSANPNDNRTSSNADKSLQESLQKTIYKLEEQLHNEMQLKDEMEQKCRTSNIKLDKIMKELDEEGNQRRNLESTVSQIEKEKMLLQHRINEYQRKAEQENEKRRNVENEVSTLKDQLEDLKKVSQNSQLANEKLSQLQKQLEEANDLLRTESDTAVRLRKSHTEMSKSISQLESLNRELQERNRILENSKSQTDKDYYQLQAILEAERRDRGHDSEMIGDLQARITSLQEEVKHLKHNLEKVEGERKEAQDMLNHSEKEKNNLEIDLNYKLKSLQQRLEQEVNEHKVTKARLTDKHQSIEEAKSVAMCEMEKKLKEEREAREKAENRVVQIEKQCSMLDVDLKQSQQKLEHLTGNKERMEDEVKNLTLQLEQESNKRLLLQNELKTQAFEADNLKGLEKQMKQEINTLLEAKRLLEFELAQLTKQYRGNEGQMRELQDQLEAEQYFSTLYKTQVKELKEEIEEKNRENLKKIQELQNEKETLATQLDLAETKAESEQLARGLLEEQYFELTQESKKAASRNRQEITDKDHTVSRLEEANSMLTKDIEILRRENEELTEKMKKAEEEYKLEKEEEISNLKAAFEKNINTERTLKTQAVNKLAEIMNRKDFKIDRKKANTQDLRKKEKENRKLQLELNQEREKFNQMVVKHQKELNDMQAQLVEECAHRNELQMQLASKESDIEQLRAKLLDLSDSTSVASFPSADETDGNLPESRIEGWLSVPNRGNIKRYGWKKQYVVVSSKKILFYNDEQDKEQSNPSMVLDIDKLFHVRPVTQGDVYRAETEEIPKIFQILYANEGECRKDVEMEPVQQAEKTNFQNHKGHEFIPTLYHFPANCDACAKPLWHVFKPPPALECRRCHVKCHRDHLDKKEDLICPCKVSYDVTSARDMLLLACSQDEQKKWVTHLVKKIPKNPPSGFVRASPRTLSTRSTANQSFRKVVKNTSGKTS
# ROCK2, sequence (O75116 whole entry): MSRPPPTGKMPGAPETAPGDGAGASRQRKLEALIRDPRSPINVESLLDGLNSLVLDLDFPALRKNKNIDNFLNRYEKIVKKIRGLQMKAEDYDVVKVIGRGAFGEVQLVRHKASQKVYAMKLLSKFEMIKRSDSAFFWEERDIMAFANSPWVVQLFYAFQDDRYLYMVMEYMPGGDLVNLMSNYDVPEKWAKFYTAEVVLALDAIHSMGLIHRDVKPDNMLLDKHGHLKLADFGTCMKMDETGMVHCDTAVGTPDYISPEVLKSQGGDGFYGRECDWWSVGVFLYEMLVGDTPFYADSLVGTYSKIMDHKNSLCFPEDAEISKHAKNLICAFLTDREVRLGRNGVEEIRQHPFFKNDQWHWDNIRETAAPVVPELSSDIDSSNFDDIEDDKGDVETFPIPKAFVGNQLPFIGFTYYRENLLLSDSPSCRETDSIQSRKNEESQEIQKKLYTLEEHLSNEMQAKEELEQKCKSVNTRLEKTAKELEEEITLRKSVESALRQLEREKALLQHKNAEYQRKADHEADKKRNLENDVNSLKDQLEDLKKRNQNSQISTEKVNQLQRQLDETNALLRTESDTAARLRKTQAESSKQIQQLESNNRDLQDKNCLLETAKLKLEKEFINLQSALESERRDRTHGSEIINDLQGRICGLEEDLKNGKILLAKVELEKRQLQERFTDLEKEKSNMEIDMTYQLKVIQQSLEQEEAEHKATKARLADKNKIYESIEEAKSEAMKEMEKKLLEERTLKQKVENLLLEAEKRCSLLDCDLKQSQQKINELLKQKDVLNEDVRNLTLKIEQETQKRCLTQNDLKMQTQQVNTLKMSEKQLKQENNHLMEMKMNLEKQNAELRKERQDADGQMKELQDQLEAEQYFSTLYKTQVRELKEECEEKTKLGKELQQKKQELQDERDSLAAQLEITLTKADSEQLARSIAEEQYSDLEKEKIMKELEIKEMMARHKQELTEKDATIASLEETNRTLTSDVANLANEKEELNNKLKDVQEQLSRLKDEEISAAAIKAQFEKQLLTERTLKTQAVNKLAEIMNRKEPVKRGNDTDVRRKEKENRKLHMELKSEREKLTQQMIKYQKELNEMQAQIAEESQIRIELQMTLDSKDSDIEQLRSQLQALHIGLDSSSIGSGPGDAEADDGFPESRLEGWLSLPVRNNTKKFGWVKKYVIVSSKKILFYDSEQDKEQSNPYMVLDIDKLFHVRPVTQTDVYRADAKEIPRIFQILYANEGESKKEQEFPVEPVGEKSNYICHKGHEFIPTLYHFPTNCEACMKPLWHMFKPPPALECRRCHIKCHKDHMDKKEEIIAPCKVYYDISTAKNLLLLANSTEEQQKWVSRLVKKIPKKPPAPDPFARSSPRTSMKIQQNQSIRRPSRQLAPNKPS
SMILES,Ki (MRCKβ [1]; [5]) [nM],Ki (ROCK2) [nM],Ki (ROCK1 [2]) [nM],Ki (MRCKα) [nM],IC50 (MRCKβ [3]; [6]) [nM],Ki (ROCK1 [4]) [nM],Ki (MRCKβ [1]) [nM],IC50 (MRCKβ [3]) [nM]
"Fc1cccnc1-c1c[nH]c2nccc(N3CCCC4(CCCCN4)C3)c12 (stereo not shown) [Example E169, 8-[3-(3-fluoro-2-pyridyl)-1H-pyrrolo[2,3-b]pyridin-4-yl]-1,8-diazaspiro[5.5]undecane]",0.106,261,861,0.189,732,,,
"N#Cc1c[nH]c2nccc(N3CCC[C@H]3COc3ccccc3)c12 [Example E40, 4-[(2S)-2-(phenoxymethyl)pyrrolidin-1-yl]-1H-pyrrolo[2,3-b]pyridine-3-carbonitrile]",247,1070,2150,,,,,
"c1cc(-c2c[nH]c3nccc(N4CCCC5(CCCCN5)C4)c23)ncn1 (stereo not shown) [Example E168, 8-(3-pyrimidin-4-yl-1H-pyrrolo[2,3-b]pyridin-4-yl)-1,8-diazaspiro[5.5]undecane]",0.065,30.9,,,< 30,89,,
"c1ncc(-c2c[nH]c3nccc(OC[C@@H]4CCCNC4)c23)cn1 [Example E214, 4-[[(3R)-3-piperidyl]methoxy]-3-pyrimidin-5-yl-1H-pyrrolo[2,3-b]pyridine]",1.07,32.1,42,,,,,
"N#Cc1c[nH]c2nccc(N3CCC[C@]4(CCCCN4)C3)c12 [Example E186, 4-[(6R)-1,8-diazaspiro[5.5]undecan-8-yl]-1H-pyrrolo[2,3-b]pyridine-3-carbonitrile]",,,347,,,,,
"N#Cc1c[nH]c2nccc(N3CCC4(CCCCN4)C3)c12 (stereo not shown) [Example E184, 4-(2,6-diazaspiro[4.5]decan-2-yl)-1H-pyrrolo[2,3-b]pyridine-3-carbonitrile]",,,21.9,,,,,
"c1csc(-c2c[nH]c3nccc(N4CCC5(CCCCN5)C4)c23)n1 (stereo not shown) [Example E155, 2-[4-(2,6-diazaspiro[4.5]decan-2-yl)-1H-pyrrolo[2,3-b]pyridin-3-yl]thiazole]",,,79.5,,,,0.0822,218
"N#Cc1c[nH]c2nccc(N3CCC[C@H]3CO)c12 [Example E38, 4-[(2S)-2-(hydroxymethyl)pyrrolidin-1-yl]-1H-pyrrolo[2,3-b]pyridine-3-carbonitrile]",5.08,12.7,16.7,,,,,
"N#Cc1c[nH]c2nccc(N3CC[C@@H](N)C3)c12 [Example E197, 4-[(3R)-3-aminopyrrolidin-1-yl]-1H-pyrrolo[2,3-b]pyridine-3-carbonitrile]",8.82,7,19.8,,,,,
"CN1CCCN(C(=O)[C@@H]2CCCN2c2ccnc3[nH]cc(C#N)c23)CC1 [Example E201, 4-[(2S)-2-(4-methyl-1,4-diazepane-1-carbonyl)pyrrolidin-1-yl]-1H-pyrrolo[2,3-b]pyridine-3-carbonitrile]",147,703,1050,,,,,
"CN(C)C1CCCN(c2ccnc3[nH]cc(-c4cncnc4)c23)C1 (stereo not shown) [Example E60, N,N-dimethyl-1-(3-pyrimidin-5-yl-1H-pyrrolo[2,3-b]pyridin-4-yl)piperidin-3-amine]",13.6,201,404,,,,,
"c1ncc(-c2c[nH]c3nccc(OC[C@H]4CCCNC4)c23)cn1 [Example E218, 4-[[(3S)-3-piperidyl]methoxy]-3-pyrimidin-5-yl-1H-pyrrolo[2,3-b]pyridine]",1.15,17.6,18.6,0.189,,,,
"c1cc(N2CCC[C@]3(CCCCN3)C2)c2c(-c3ncsn3)c[nH]c2n1 [Example E115, 3-[4-[(6R)-1,8-diazaspiro[5.5]undecan-8-yl]-1H-pyrrolo[2,3-b]pyridin-3-yl]-1,2,4-thiadiazole]",2.48,,≥ 100000,,,,,
"c1cc(-c2c[nH]c3nccc(N4CC[C@@]5(CCCCN5)C4)c23)ncn1 [Example E128, (5S)-2-(3-pyrimidin-4-yl-1H-pyrrolo[2,3-b]pyridin-4-yl)-2,6-diazaspiro[4.5]decane]",0.0652,4.41,,0.0317,420,10.6,,
"OC1CCN([C@H]2CCCN(c3ccnc4[nH]cc(-c5cncnc5)c34)C2)CC1 [Example E92, 1-[(3S)-1-(3-pyrimidin-5-yl-1H-pyrrolo[2,3-b]pyridin-4-yl)-3-piperidyl]piperidin-4-ol]",4.97,1510,5000,,,,,
"CN[C@H]1CCCN(c2ccnc3[nH]cc(-c4cncnc4)c23)C1 [Example E57, (3S)-N-methyl-1-(3-pyrimidin-5-yl-1H-pyrrolo[2,3-b]pyridin-4-yl)piperidin-3-amine]",2.34,545,,2.93,,50700,,

# The remaining molecules from weak to strong by Ki (MRCKβ [1]; [5]), led by results:
Ki (MRCKβ [1]; [5]) [nM],Ki (ROCK2) [nM],Ki (ROCK1 [2]) [nM],Ki (MRCKα) [nM],IC50 (MRCKβ [3]; [6]) [nM],Ki (ROCK1 [4]) [nM],SMILES,Ki (MRCKβ [1]) [nM],IC50 (MRCKβ [3]) [nM]
346,276,1300,,,,"Brc1cnc2[nH]cc(-c3cc[nH]n3)c2c1N1CCCCC1 [Example E70, 5-bromo-4-(1-piperidyl)-3-(1H-pyrazol-3-yl)-1H-pyrrolo[2,3-b]pyridine]",,
124,1580,3420,,,,"CN1CC[C@@H]2CCN(c3ccnc4[nH]cc(-c5cncnc5)c34)C[C@@H]21 [Example E180, 4-[(3aR,7aR)-1-methyl-3,3a,4,5,7,7a-hexahydro-2H-pyrrolo[2,3-c]pyridin-6-yl]-3-pyrimidin-5-yl-1H-pyrrolo[2,3-b]pyridine]",,
71.3,277,505,,,,"O[C@@H]1CCCN(c2ccnc3[nH]cc(-c4cncnc4)c23)C1 [Example E100, (3R)-1-(3-pyrimidin-5-yl-1H-pyrrolo[2,3-b]pyridin-4-yl)piperidin-3-ol]",,
54.3,326,50300,33.6,,,"c1ncc(-c2c[nH]c3nccc(N[C@H]4CCCNC4)c23)cn1 [Example E87, N-[(3S)-3-piperidyl]-3-pyrimidin-5-yl-1H-pyrrolo[2,3-b]pyridin-4-amine]",,
29.7,86.8,103,,,,"N#Cc1c[nH]c2nccc(N3CCC[C@@H]3CO)c12 [Example E39, 4-[(2R)-2-(hydroxymethyl)pyrrolidin-1-yl]-1H-pyrrolo[2,3-b]pyridine-3-carbonitrile]",,
16.7,24.1,,47.9,,43.6,"CN(C)c1ccnc2[nH]cc(C#N)c12 [Example E31, 4-(dimethylamino)-1H-pyrrolo[2,3-b]pyridine-3-carbonitrile]",,
4.78,830,2380,11.6,,,"OC1CCN([C@H]2CCCN(c3ccnc4[nH]cc(-c5cncnc5)c34)C2)C1 (stereo partly drawn) [Example E93, [(3S)-1-(3-pyrimidin-5-yl-1H-pyrrolo[2,3-b]pyridin-4-yl)-3-piperidyl]pyrrolidin-3-ol]",,
3.29,102,152,1.91,,,"CN1CCC[C@@H](COc2ccnc3[nH]cc(-c4cncnc4)c23)C1 [Example E224, 4-[[(3R)-1-methyl-3-piperidyl]methoxy]-3-pyrimidin-5-yl-1H-pyrrolo[2,3-b]pyridine]",,
3.13,145,196,,,,"CN1CC[C@H]2CN(c3ccnc4[nH]cc(-c5cncnc5)c34)CC[C@H]21 [Example E200, 4-[(3aS,7aR)-1-methyl-3,3a,4,6,7,7a-hexahydro-2H-pyrrolo[3,2-c]pyridin-5-yl]-3-pyrimidin-5-yl-1H-pyrrolo[2,3-b]pyridine]",,
1.85,196,1110,0.481,,,"CN[C@H]1CCCN(c2ccnc3[nH]cc(-c4cc[nH]n4)c23)C1 [Example E83, (3S)-N-methyl-1-[3-(1H-pyrazol-3-yl)-1H-pyrrolo[2,3-b]pyridin-4-yl]piperidin-3-amine]",,
1.11,1.9,3.5,,,,"Nc1cncc(-c2c[nH]c3nccc(N4CCCCC4)c23)c1 [Example E6, 5-[4-(1-piperidyl)-1H-pyrrolo[2,3-b]pyridin-3-yl]pyridin-3-amine]",,
0.202,,34.4,,,,"c1cc(-c2c[nH]c3nccc(N4CCC[C@H](NC5CC5)C4)c23)ncn1 [Example E41, (3S)—N-cyclopropyl-1-(3-pyrimidin-4-yl-1H-pyrrolo[2,3-b]pyridin-4-yl)piperidin-3-amine]",,
0.181,119,,0.517,622,423,"CC1(N)CCCN(c2ccnc3[nH]cc(-c4cncnc4)c23)C1 (stereo not shown) [Example E178, 3-methyl-1-(3-pyrimidin-5-yl-1H-pyrrolo[2,3-b]pyridin-4-yl)piperidin-3-amine]",,
0.17,99.2,241,0.238,1780,,"CN[C@H]1CCCN(c2ccnc3[nH]cc(-c4ccncn4)c23)C1 [Example E66, (3S)-N-methyl-1-(3-pyrimidin-4-yl-1H-pyrrolo[2,3-b]pyridin-4-yl)piperidin-3-amine]",,
